How the values were obtained:
human SMAD7 mRNA = experiment: Antisense inhibition of human SMAD7 mRNA expression in Hep3B cells by 3-10-3 cEt gapmers, 10,000 nM, electroporation (Example 2); assay type: cell-based; settings: Hep3B cells, electroporation with 10,000 nM antisense oligonucleotide, approximately 24 hours, SMAD7 mRNA by RT-PCR (RTS5062), relative to untreated control cells
Summary of the method: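 qRT-PCR (RTS5062) of SMAD7 mRNA, normalised to RIBOGREEN total RNA, gave percent inhibition relative to untreated controls. Hep3B cells at 20,000 per well received 10,000 nM oligonucleotide by electroporation, with ~24 h treatment.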

murine Smad7 mRNA = experiment: Dose-dependent inhibition of murine Smad7 mRNA in bEND cells, electroporation (Example 5, Study 2); assay type: cell-based, mouse; settings: electroporation; for % inhibition of SMAD7 mRNA expression: approximately 16 hours
Summary of the method: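 Mouse bEND cells electroporated with oligonucleotide at several doses and treated for approximately 16 hours. Smad7 mRNA quantified by real-time RT-PCR (primer probe set RTS1114), normalised to total RNA by RiboGreen. Reported as percent inhibition relative to untreated cells.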

mouse Smad7 mRNA = experiment: Pharmacology: mouse Smad7 mRNA expression in liver, kidney, duodenum, ileum and colon after subcutaneous administration in CD-1 mice (Example 6); assay type: in vivo; settings: 50 mg/kg subcutaneous twice weekly for 7 weeks, normalized to GAPDH
Summary of the method: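 Male CD-1 mice, 8-9 weeks old, got 50 mg/kg oligonucleotide subcutaneously twice weekly (100 mg/kg/week) for 7 weeks, with PBS controls; n=4 per group. At necropsy, Smad7 mRNA in liver, kidney, duodenum, ileum and colon was measured by RT-PCR (probe set HTS7555), normalized to GAPDH; one-way ANOVA with Dunnett's test.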

[1] = Body and organ weights after oral gavage in CD-1 mice (Example 7); assay type: in vivo; settings: 500 mg/kg oral gavage once daily for 4 weeks, end of study
Experimental: (§1) Groups of 7-8 week old male CD-1 mice were given an oral gavage dose once daily for 4 weeks of 500 mg/kg of Ionis SMAD7 oligonucleotides. Each group contained 8 mice. One group of male CD-1 mice was administered saline by oral gavage daily.
Final body weights were measured at the end of the study. There was no significant difference in the body weight of the mice treated with antisense oligonucleotide compared to the control.
None of the Ionis SMAD7 oligonucleotides caused any changes in organ weights outside the expected range for antisense oligonucleotides.

[2] = Oligonucleotide concentrations in tissues by LC-MS/MS after oral gavage in CD-1 mice (Example 7); assay type: in vivo; settings: 500 mg/kg oral gavage once daily for 4 weeks, 48 hours after last dose
Experimental: as §1
Oligonucleotide concentrations were detected in various tissues by LC-MS/MS analysis. The greatest concentration was found in the kidney, followed by the colon.

[3] = Body and organ weights after subcutaneous administration in beagle dogs (Example 8); assay type: in vivo; settings: 30 mg/kg subcutaneous days 1, 3, 5, 8, 15, 22, 29, end of study
Experimental: (§2) There were 4 animals per group.
Body weights as well as kidney, spleen, liver (with gall bladder), mesenteric lymph node, heart, and thymus weights were measured at the end of the study. […] Ionis SMAD7 oligonucleotides that caused any changes in organ weights outside the expected range for antisense oligonucleotides were excluded from further studies.

[4] = Pharmacokinetics: oligonucleotide concentration in the plasma on day 28 after oral gavage in beagle dogs (Example 12); assay type: in vivo; settings: 200 mg oral gavage
Experimental: as §2
Plasma concentrations of Ionis oligonucleotides were also measured on Day 28 at various time points.

[5] = Plasma chemistry markers after subcutaneous administration in beagle dogs (Example 8); settings: 30 mg/kg subcutaneous days 1, 3, 5, 8, 15, 22, 29, plasma at day 31

With “830025 (antisense TTTGTAAATCGAAAGC; 3-10-3 cEt gapmer, further chemistry not given here) [compound 830025]” the “% Inhibition” value (human SMAD7 mRNA) was 62%, the “% inhibition of SMAD7 mRNA expression” value (murine Smad7 mRNA; 0.25 μM) was 15% and the “% inhibition of SMAD7 mRNA expression” value (murine Smad7 mRNA; 0.74 μM) was 27%. For the same substance, the “% inhibition of SMAD7 mRNA expression” value (murine Smad7 mRNA; 2.22 μM) was 51%, the “% inhibition of SMAD7 mRNA expression” value (murine Smad7 mRNA; 6.67 μM) was 67% and the “% inhibition of SMAD7 mRNA expression” value (murine Smad7 mRNA; 20.00 μM) was 77%. The IC50 (murine Smad7 mRNA) was 2700 nM, the “% inhibition of Smad7 mRNA expression (compared to control), Kidney” value (mouse Smad7 mRNA; kidney) was 45% and the “% inhibition of Smad7 mRNA expression (compared to control), Liver” value (mouse Smad7 mRNA; liver) was 60%. The Body weight [1] was 35 g, the Heart weight [1] was 0.17 g and the Kidneys weight [1] was 0.71 g. The “Liver with gallbladder weight” value [1] was 1.88 g, the Spleen weight [1] was 0.10 g and the “Oligonucleotide concentration, Colon” value ([2]; colon) was 3.6 µg/g. For the same substance, the “Oligonucleotide concentration, Duodenum” value ([2]; duodenum) was 0.7 µg/g, the “Oligonucleotide concentration, Ileum” value ([2]; ileum) was 1.9 µg/g and the “Oligonucleotide concentration, Kidney” value ([2]; kidney) was 21.5 µg/g. The “Oligonucleotide concentration, Liver” value ([2]; liver) was 2.3 µg/g, the Body weight [3] was 7403 g and the Heart weight [3] was 60.5 g. The Kidney weight [3] was 40.3 g, the Liver weight [3] was 250.3 g and the “Mesenteric LN weight” value [3] was 10.9 g. For the same substance, the Spleen weight [3] was 28.9 g, the Thymus weight [3] was 8.3 g and the “Oligonucleotide concentration in the plasma on day 28” value ([4]; 2 hr) was 13.6 ng/mL. For the same substance, the “Oligonucleotide concentration in the plasma on day 28” value ([4]; 4 hr) was 3.8 ng/mL, the “Oligonucleotide concentration in the plasma on day 28” value ([4]; 8 hr) was 1.7 ng/mL and the “Oligonucleotide concentration in the plasma on day 28” value ([4]; 24 hr) was 0.0 ng/mL. For the same substance, the ALT [5] was 26 IU/L, the AST [5] was 38 IU/L and the Albumin [5] was 3.1 g/dL. It also gave a BUN [5] of 17.9 mg/dL, a Bilirubin [5] of 0.1 mg/dL and a Creatine [5] of 0.9 mg/dL.

— patent publication US10517889B2, “Modulators of SMAD7 expression” (Ionis Pharmaceuticals, Inc., priority 2017, dated 2019)
